Structures are written as SMILES.

The series deals with ATP-dependent translocase ABCB1 (Homo sapiens, UniProt P08183). Description: TP_TRANSPORTER: cell accumulation (digoxin-sensitive) in Caco-2 cells. The format is functional, cell-based.
Chain of ATP-dependent translocase ABCB1 (P08183 whole entry): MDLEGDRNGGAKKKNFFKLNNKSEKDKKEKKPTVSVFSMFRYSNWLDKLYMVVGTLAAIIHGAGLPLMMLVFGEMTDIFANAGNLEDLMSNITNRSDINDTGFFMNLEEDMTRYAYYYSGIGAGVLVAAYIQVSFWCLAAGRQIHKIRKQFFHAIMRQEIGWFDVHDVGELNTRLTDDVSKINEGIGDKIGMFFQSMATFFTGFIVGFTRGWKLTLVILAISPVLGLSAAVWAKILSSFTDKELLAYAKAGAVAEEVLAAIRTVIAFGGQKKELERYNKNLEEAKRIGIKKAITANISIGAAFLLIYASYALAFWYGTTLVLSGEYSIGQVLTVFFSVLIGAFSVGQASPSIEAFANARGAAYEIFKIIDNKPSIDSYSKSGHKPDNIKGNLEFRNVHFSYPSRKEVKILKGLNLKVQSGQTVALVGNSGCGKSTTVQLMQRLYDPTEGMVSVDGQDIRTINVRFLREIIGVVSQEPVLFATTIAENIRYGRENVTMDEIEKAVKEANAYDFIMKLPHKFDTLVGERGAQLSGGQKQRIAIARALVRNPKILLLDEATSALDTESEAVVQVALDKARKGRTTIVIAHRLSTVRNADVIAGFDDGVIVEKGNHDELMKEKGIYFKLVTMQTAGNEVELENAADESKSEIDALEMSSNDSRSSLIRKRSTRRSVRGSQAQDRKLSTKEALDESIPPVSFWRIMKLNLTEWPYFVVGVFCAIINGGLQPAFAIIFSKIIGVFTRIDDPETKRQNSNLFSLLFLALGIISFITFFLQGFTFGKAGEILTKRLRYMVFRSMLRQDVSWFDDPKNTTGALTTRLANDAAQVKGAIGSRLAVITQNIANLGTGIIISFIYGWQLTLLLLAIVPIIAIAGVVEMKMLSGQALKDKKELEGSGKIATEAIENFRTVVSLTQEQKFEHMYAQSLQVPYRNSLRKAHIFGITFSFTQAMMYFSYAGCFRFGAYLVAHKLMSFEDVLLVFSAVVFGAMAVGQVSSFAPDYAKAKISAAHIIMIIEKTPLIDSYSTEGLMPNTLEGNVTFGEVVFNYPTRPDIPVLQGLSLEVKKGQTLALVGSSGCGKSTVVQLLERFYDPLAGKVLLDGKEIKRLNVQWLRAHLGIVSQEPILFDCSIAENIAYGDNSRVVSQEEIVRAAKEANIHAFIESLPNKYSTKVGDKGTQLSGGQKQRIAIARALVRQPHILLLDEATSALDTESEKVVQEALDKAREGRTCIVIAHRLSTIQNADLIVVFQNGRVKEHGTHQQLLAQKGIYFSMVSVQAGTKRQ
`CCCCCCCCCCCCC/C=C/[C@@H](O)[C@@H](N)CO` [SPHINGOSINE]: the Activity result is “is not a substrate [-]”.

As for `CCCCCCCCCCCCCCC[C@@H](O)[C@@H](N)CO` [DIHYDROSPINGOSINE], the Activity result is “substrate [+]”.

Turning to `CCCCCCCCC/C=C\CC/C=C/C(O)C(N)CO` (configuration not stated), the Activity entry is “substrate [+]”.

On to `CCCCCCCCC/C(C)=C/CC/C=C/C(O)C(N)CO` (configuration not stated), for which the Activity entry was “substrate [+]”.

As for `CCCCCCCCC/C=C/CCCCC(O)C(N)CO` (configuration not stated), the Activity entry was “substrate [+]”.

Consider `CCCCCCCCC/C=C\CCCCC(O)C(N)CO` (configuration not stated), for which the Activity result was “substrate [+]”.

For the compound `CCCCCCCCC/C=C/CC/C=C/C(O)C(N)CO` (configuration not stated), the Activity entry was “substrate [+]”.
